These results are taken from US4826845A, “3(2H)-pyridazinones and pharmaceutical compositions thereof” (Richter Gedeon Vegyeszeti Gyar T.R., priority 1985, dated 1989).

SMILES strings stand for the structures. Structures can show the parent of a compound that is named as a salt.

One experiment concerns anaesthetized cats. The experiment can be described thus: Hypotensive and heart rate effects on anaesthetized cats after intravenous or intraduodenal administration. It is filed as in vivo, cat. As for the experimental part:
The cats were anaesthetized by intraperitoneally administering 35 mg/kg of sodium pentobarbital while promoting the spontaneous respiration by the introduction of a trachea cannula. On one side, the femoral vessels are cannulated. The cannula introduced to the femoral vein was used for the intravenous administration of the compounds to be tested. The arterial cannula was connected with a Hellige electromanometer by using a Statham P 23 Db transducer for measuring the mean arterial pressure. The heart rate was continuously registered by means of a cardiotachometer triggered by the pulse wave sign of the electromanometer.
In an other series of these experiments, the compound to be tested was administered through a duodenal tube. The compound of Example 3 (or 12) was used in intravenous doses of 0.5, 1.0 and 5.0 mg/kg as well as in intraduodenal doses of 1.25, 5.0 and 10.0 mg/kg.

Experiment [1] relates to postsynaptic alpha1 receptor. Description: Kinetic analysis on rabbit aorta strip preparation: postsynaptic alpha1 receptor antagonism. It is filed as cell-based. Here is the method:
Male rabbits with a body-weight of 3 to 3.5 kg were used for these experiments. […] A dose response curve was plotted by using norepinephrine and a dose selected from the steepest interval of the curve was added repeatedly to the bath until obtaining equal responses. Then, the compound to be tested was added and after 5 minutes, the dose series of norepinephrine was repeated. The extent of the inhibition was expressed as percentage.

On to `O=c1cccnn1CCCNCC1COc2ccccc2O1` (centres unmarked) [Example 3 (or 12), 2-[3-(benzo[1,4]dioxan-2-yl-methylamino)-1-propyl]-3(2H)-pyridazinone hydrochloride], for which, in the experiment with anaesthetized cats (0.5 mg/kg i.v.), the duration of hypotension was determined as 60 min, the half-life of hypotension entry is on record as “about 30 minutes”, the “heart rate effect (in words)” value is reported as “accompanied by bradycardia” and the hypotension was 50%. Also, the “maximum of the hypotension, intravenous versus intraduodenal” value with anaesthetized cats (1.0 mg/kg i.v. versus 1.25 mg/kg intraduodenal) is reported as “nearly equal”. Moreover, in the experiment on anaesthetized cats (1.25 mg/kg intraduodenal), the “decrease in the blood pressure” value was 50%, the “duration of hypotension (detected up to)” value is “up to 2 hours” and the “time of development of hypotension” value was at most 15 min. Besides, the “heart rate effect (in words)” value in the experiment on anaesthetized cats (intraduodenal) is on record as “significantly diminished”. Also, in experiment [1] (negative logarithm of the molar antagonist concentration inhibiting the agonist to 50%, norepinephrine agonist, 5 min), the pA2 was 7.26. In addition, in experiment [1] (rabbit aorta, norepinephrine), the “Slope of the curve” value is -1.26.
